Measurements: ChEMBL document CHEMBL4304811, “Development of a Water-Soluble Indolylmaleimide Derivative IM-93 Showing Dual Inhibition of Ferroptosis and NETosis” (ACS Med Chem Lett, 2019)

What was measured:
[1] = target: Tyrosine-protein kinase ABL1 (Homo sapiens) (UniProt P00519); test: Binding affinity to wild-type human non-phosphorylated ABL1 (S229 to K512 residues) expressed in mammalian expression system assessed as residual binding level at 10 uM by Kinomescan method relative to control
[2] = target: Activin receptor type-1 (Homo sapiens) (UniProt Q04771); test: Binding affinity to wild-type human ACVR1 (C188 to C509 residues) expressed in bacterial expression system assessed as residual binding level at 10 uM by Kinomescan method relative to control
[3] = target: Tyrosine-protein kinase receptor UFO (Homo sapiens) (UniProt P30530); test: Binding affinity to wild-type human partial length AXL (R497 to Y821 residues) expressed in bacterial expression system assessed as residual binding level at 10 uM by Kinomescan method relative to control
[4] = target: CDK4/Cyclin D3 (Homo sapiens) (UniProt P11802+P30281); test: Binding affinity to wild-type human full length CDK4/cyclinD3 (M1 to E303 residues) expressed in mammalian expression system assessed as residual binding level at 10 uM by Kinomescan method relative to control
[5] = target: Cyclin-dependent kinase 7 (Homo sapiens) (UniProt P50613); test: Binding affinity to wild-type human full length CDK7 (M1 to L344 residues) expressed in mammalian expression system assessed as residual binding level at 10 uM by Kinomescan method relative to control
[6] = target: Receptor-type tyrosine-protein kinase FLT3 (Homo sapiens) (UniProt P36888); test: Binding affinity to wild-type human partial length autoinhibited FLT3 (H564 to Y969 residues) expressed in mammalian expression system assessed as residual binding level at 10 uM by Kinomescan method relative to control
[7] = system: Mast/stem cell growth factor receptor Kit (Homo sapiens), P10721 [L576P]; test: Binding affinity to human partial length KIT L576P mutant (Y545 to D952 residues) expressed in bacterial expression system assessed as residual binding level at 10 uM by Kinomescan method relative to control
[8] = target: Mitogen-activated protein kinase kinase kinase 13 (Homo sapiens) (UniProt O43283); test: Binding affinity to wild-type human full length LZK (M1 to W966 residues) expressed in mammalian expression system assessed as residual binding level at 10 uM by Kinomescan method relative to control
[9] = target: Dual specificity mitogen-activated protein kinase kinase 2 (Homo sapiens) (UniProt P36507); test: Binding affinity to wild-type human full length MEK2 (M1 to V400 residues) expressed in mammalian expression system assessed as residual binding level at 10 uM by Kinomescan method relative to control
[10] = target: Hepatocyte growth factor receptor (Homo sapiens) (UniProt P08581); test: Binding affinity to wild-type human partial length MET (D1010 to S1367 residues) expressed in bacterial expression system assessed as residual binding level at 10 uM by Kinomescan method relative to control
[11] = target: Serine/threonine-protein kinase MRCK alpha (Homo sapiens) (UniProt Q5VT25); test: Binding affinity to wild-type human partial length MRCKA (L57 to V418 residues) expressed in bacterial expression system assessed as residual binding level at 10 uM by Kinomescan method relative to control
[12] = target: Myosin light chain kinase, smooth muscle (Homo sapiens) (UniProt Q15746); test: Binding affinity to wild-type human full length MYLK (M854 to E1845 residues) expressed in mammalian expression system assessed as residual binding level at 10 uM by Kinomescan method relative to control
[13] = target: Serine/threonine-protein kinase Nek1 (Homo sapiens) (UniProt Q96PY6); test: Binding affinity to wild-type human partial length NEK1 (M1 to K278 residues) expressed in bacterial expression system assessed as residual binding level at 10 uM by Kinomescan method relative to control
[14] = target: Platelet-derived growth factor receptor alpha (Homo sapiens) (UniProt P16234); test: Binding affinity to wild-type human partial length PDGFRA (V575 to D1002 residues) expressed in mammalian expression system assessed as residual binding level at 10 uM by Kinomescan method relative to control
[15] = system: Phosphatidylinositol 4,5-bisphosphate 3-kinase catalytic subunit alpha isoform (Homo sapiens), P42336 [E545A]; test: Binding affinity to human partial length PIK3CA E545A mutant (R108 to N1068 residues) expressed in mammalian expression system assessed as residual binding level at 10 uM by Kinomescan method relative to control
[16] = system: Phosphatidylinositol 4,5-bisphosphate 3-kinase catalytic subunit alpha isoform (Homo sapiens), P42336 [H1047Y]; test: Binding affinity to human partial length PIK3CA H1047Y mutant (R108 to N1068 residues) expressed in mammalian expression system assessed as residual binding level at 10 uM by Kinomescan method relative to control
[17] = target: cAMP-dependent protein kinase catalytic subunit alpha (Homo sapiens) (UniProt P17612); test: Binding affinity to wild-type human partial length PKAC-alpha (G10 to F351 residues) expressed in bacterial expression system assessed as residual binding level at 10 uM by Kinomescan method relative to control
[18] = target: Serine/threonine-protein kinase PLK1 (Homo sapiens) (UniProt P53350); test: Binding affinity to wild-type human partial length PLK1 (A33 to F325 residues) expressed in mammalian expression system assessed as residual binding level at 10 uM by Kinomescan method relative to control
[19] = target: Serine/threonine-protein kinase D2 (Homo sapiens) (UniProt Q9BZL6); test: Binding affinity to wild-type human partial length PRKD2 (A519 to E838 residues) expressed in bacterial expression system assessed as residual binding level at 10 uM by Kinomescan method relative to control
[20] = target: cGMP-dependent protein kinase 1 (Homo sapiens) (UniProt Q13976); test: Binding affinity to wild-type human partial length PRKG1 (L339 to F686 residues) expressed in bacterial expression system assessed as residual binding level at 10 uM by Kinomescan method relative to control
[21] = target: SRSF protein kinase 2 (Homo sapiens) (UniProt P78362); test: Binding affinity to wild-type human full length SRPK2 (M1 to S686 residues) expressed in bacterial expression system assessed as residual binding level at 10 uM by Kinomescan method relative to control
[22] = target: Serine/threonine-protein kinase 33 (Homo sapiens) (UniProt Q9BYT3); test: Binding affinity to wild-type human full length STK33 (M1 to L514 residues) expressed in bacterial expression system assessed as residual binding level at 10 uM by Kinomescan method relative to control
[23] = target: TGF-beta receptor type-2 (Homo sapiens) (UniProt P37173); test: Binding affinity to wild-type human partial length TGFBR2 (I218 to K567 residues) expressed in bacterial expression system assessed as residual binding level at 10 uM by Kinomescan method relative to control
[24] = target: NT-3 growth factor receptor (Homo sapiens) (UniProt Q16288); test: Binding affinity to wild-type human partial length TRKC (Q531 to G825 residues) expressed in mammalian expression system assessed as residual binding level at 10 uM by Kinomescan method relative to control

Chain of Hepatocyte growth factor receptor (Homo sapiens) (P08581 whole entry, the tested form may be a part): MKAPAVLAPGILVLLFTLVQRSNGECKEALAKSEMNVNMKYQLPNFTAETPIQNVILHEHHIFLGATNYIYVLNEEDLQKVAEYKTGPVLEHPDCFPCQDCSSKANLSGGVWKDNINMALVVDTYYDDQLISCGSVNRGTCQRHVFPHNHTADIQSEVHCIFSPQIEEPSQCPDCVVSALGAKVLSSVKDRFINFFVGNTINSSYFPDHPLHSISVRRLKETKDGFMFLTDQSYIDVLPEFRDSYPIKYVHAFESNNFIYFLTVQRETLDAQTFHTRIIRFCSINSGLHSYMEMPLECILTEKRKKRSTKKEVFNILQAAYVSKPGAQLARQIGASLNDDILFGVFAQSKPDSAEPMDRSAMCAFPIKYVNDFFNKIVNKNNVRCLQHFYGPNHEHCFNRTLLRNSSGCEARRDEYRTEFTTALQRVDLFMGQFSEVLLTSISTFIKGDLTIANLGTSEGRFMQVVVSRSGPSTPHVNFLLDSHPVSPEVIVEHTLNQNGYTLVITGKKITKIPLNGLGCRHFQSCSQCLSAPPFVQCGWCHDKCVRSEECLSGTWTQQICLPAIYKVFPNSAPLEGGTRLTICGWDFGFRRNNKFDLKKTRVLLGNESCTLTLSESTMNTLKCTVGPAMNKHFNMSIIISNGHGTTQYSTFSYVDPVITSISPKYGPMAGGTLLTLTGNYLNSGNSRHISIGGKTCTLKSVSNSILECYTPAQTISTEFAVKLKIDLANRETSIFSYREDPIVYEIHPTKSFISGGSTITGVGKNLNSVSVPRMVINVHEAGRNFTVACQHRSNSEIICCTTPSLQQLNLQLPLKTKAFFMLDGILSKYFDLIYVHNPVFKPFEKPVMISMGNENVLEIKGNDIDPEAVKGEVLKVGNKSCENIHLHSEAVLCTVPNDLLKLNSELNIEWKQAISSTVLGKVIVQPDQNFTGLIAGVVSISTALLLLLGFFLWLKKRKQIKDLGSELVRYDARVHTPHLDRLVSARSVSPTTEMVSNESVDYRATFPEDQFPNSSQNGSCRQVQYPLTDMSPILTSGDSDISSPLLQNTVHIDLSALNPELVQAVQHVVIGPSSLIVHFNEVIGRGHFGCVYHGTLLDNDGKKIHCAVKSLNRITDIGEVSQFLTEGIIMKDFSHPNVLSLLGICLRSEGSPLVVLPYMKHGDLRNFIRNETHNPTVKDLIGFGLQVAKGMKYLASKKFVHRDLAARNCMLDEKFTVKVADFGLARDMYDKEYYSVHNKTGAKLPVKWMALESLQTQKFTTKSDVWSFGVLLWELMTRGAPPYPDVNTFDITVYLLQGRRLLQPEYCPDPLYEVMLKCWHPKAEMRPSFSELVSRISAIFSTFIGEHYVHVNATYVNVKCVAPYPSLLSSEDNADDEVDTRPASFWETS
Chain of Receptor-type tyrosine-protein kinase FLT3 (Homo sapiens) (P36888 whole entry, the tested form may be a part): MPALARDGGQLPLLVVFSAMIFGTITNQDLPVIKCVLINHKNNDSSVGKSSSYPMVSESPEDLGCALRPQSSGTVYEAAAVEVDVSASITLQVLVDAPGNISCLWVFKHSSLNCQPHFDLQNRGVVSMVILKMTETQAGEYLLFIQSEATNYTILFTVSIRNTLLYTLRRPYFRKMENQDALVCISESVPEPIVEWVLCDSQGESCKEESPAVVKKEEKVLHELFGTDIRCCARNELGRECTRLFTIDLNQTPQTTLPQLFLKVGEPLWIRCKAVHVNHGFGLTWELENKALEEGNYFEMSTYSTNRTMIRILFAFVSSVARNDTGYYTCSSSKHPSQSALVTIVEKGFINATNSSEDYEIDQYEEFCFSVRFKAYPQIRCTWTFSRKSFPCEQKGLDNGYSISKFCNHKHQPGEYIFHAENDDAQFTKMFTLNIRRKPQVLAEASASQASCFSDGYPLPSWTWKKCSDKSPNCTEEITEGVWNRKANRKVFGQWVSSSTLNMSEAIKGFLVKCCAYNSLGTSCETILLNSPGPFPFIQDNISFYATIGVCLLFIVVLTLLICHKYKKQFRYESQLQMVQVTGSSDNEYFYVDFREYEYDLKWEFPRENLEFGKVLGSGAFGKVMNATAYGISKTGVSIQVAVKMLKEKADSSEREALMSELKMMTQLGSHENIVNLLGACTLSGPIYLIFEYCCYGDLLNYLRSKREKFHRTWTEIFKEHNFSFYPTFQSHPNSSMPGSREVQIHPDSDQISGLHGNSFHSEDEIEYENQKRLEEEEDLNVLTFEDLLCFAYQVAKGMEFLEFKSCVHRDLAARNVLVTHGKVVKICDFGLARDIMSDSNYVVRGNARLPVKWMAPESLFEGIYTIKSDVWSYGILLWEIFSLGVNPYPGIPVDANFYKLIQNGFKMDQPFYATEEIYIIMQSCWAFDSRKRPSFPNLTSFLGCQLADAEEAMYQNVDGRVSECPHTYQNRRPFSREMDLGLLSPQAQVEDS
Chain of Tyrosine-protein kinase receptor UFO (Homo sapiens) (P30530 whole entry, the tested form may be a part): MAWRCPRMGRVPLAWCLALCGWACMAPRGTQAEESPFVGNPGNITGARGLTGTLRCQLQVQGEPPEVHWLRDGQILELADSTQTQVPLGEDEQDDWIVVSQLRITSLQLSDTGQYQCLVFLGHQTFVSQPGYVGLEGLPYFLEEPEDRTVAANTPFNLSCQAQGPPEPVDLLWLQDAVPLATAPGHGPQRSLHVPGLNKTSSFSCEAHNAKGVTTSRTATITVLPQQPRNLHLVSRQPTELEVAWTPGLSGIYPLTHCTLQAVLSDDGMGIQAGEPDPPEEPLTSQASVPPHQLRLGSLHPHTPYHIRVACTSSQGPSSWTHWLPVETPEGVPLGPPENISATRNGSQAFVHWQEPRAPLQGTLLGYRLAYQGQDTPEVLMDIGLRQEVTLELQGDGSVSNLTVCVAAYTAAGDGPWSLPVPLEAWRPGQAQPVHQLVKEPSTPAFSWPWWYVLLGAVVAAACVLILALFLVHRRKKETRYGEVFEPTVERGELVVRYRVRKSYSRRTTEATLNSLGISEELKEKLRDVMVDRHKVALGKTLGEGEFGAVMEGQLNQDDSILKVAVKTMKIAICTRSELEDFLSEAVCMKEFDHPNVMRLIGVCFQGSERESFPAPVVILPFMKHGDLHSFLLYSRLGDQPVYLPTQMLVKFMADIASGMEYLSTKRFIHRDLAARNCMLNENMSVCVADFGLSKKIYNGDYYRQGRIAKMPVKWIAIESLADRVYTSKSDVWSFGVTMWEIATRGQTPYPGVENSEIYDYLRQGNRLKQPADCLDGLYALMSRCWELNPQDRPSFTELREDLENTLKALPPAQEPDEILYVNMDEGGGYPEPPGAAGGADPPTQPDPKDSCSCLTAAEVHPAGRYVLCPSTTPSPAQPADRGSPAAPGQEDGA
Chain of Serine/threonine-protein kinase 33 (Homo sapiens) (Q9BYT3 whole entry, looked up, the tested form may be a part): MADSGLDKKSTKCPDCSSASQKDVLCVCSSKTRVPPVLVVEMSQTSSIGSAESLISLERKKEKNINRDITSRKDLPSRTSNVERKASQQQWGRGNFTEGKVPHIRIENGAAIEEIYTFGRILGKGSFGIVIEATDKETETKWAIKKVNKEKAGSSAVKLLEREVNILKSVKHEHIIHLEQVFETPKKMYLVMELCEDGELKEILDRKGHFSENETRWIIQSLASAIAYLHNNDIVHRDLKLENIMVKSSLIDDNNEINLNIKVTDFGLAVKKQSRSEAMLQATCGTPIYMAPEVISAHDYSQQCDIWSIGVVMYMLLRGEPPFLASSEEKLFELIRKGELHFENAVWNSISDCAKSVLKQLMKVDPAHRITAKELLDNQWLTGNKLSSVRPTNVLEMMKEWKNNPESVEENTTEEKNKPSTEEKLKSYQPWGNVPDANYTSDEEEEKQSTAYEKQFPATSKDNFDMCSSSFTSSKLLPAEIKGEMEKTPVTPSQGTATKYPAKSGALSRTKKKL
Chain of Serine/threonine-protein kinase D2 (Homo sapiens) (Q9BZL6 whole entry, the tested form may be a part): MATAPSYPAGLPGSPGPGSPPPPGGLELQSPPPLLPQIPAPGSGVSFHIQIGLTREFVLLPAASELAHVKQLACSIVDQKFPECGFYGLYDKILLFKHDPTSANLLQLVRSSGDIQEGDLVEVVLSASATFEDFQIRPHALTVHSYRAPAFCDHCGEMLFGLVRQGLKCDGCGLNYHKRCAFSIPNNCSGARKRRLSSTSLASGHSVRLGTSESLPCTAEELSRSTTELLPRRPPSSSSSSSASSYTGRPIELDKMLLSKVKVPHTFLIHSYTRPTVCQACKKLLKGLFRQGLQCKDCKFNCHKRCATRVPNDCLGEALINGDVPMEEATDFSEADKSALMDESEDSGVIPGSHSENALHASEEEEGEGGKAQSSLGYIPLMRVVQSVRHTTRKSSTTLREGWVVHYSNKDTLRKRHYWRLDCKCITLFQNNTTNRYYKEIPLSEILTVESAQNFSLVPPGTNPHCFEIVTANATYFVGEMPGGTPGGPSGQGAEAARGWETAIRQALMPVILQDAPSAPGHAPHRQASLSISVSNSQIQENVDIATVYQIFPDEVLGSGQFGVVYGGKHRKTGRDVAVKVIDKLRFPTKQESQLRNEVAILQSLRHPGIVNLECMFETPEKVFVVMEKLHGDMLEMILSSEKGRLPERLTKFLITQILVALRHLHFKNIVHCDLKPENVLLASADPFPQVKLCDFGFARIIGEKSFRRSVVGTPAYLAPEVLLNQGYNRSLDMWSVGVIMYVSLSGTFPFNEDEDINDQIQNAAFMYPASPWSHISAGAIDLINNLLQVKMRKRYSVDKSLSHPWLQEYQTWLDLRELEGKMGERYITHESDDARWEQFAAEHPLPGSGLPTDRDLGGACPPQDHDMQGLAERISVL
Chain of Dual specificity mitogen-activated protein kinase kinase 2 (Homo sapiens) (P36507 whole entry, the tested form may be a part): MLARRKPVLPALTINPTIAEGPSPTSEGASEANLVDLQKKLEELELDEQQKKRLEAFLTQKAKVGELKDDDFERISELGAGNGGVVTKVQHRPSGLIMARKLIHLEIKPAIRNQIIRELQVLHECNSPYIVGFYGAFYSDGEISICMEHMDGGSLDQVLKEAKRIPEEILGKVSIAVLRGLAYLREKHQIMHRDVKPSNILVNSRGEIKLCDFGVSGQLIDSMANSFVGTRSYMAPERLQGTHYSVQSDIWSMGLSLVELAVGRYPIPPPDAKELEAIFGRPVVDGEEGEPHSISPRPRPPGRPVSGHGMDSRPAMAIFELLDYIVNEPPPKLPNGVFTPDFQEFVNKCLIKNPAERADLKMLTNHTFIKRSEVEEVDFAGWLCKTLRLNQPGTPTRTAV

Which results are given for `CC(C)N1C(=O)C(NCCCN(C)C)=C(c2cn(C)c3ccccc23)C1=O.Cl`?
Activity [1]: 84%; Activity [2]: 100%; Activity [3]: 99%; Activity [4]: 93%; Activity [5]: 80%; Activity [6]: 88%; Activity [7]: 87%; Activity [8]: 100%; Activity [9]: 94%; Activity [10]: 97%; Activity [11]: 98%; Activity [12]: 75%; Activity [13]: 100%; Activity [14]: 86%; Activity [15]: 95%; Activity [16]: 94%; Activity [17]: 84%; Activity [18]: 85%; Activity [19]: 93%; Activity [20]: 91%; Activity [21]: 100%; Activity [22]: 100%; Activity [23]: 92%; Activity [24]: 100%
